Results on 24 compounds are retold here after patent US9133167B2, “Antibacterial quinoline derivatives” (JANSSEN PHARMACEUTICA NV, priority 2012, dated 2015).

Values after ≈ are worked out from the molar mass of the structure shown. Values joined by “and” are separate entries in the source; they are usually repeats but may differ in a detail not shown here. Identical values can stand only once. Counter-ions that a name gives are not always drawn.

In data set [1] the test system is Staphylococcus aureus (ATCC29213). The data set can be described thus: Microtitre plate assay, IC90 for bacterial growth, Staphylococcus aureus strain. It is filed as cell-based. The following applies: 90% inhibitory concentration for bacterial growth, 24 hours at 37° C.; for IC90: read-out: IC90 (μg/ml) STA B29213. As to the method:
D.2. In-Vitro Method for Testing Compounds for Anti-Bacterial Activity Against a Non-Mycobacterial Strain
Preparation of Bacterial Suspensions for Susceptibility Testing:
The bacteria used in this study were grown overnight in flasks containing 100 ml Mueller-Hinton Broth (Becton Dickinson—cat. no. 275730) in sterile de-ionized water, with shaking, at 37° C. Stocks (0.5 ml/tube) were stored at −70° C. until use. Bacteria titrations were performed in microtiter plates to detect the TCID50, in which TCID50 represents the dilution that gives rise to bacterial growth in 50% of inoculated cultures. In general, an inoculum level of approximately 100 TCID50 was used for susceptibility testing.
Anti Bacterial Susceptibility Testing: IC90 Determination
Flat-bottom, sterile 96-well plastic microtiter plates were filled with 180 μl of sterile deionized water, supplemented with 0.25% BSA. Subsequently, stock solutions (7.8× final test concentration) of compounds were added in 45 μl volumes in column 2 Serial five-fold dilutions (45 μl in 180 μl) were made directly in the microtiter plates from column 2 to reach column 11. Untreated control samples with (column 1) and without (column 12) inoculum were included in each microtiter plate. Depending on the bacteria type, approximately 10 to 60 CFU per well of bacteria inoculum (100 TCID50), in a volume of 100 μl in 2.8× Mueller-Hinton broth medium, was added to the rows A to H, except column 12. The same volume of broth medium without inoculum was added to column 12 in row A to H. The cultures were incubated at 37° C. for 24 hours under a normal atmosphere (incubator with open air valve and continuous ventilation). At the end of incubation, one day after inoculation, the bacterial growth was quantitated fluorometrically. Therefore resazurin (0.6 mg/ml) was added in a volume of 20 μl to all wells 3 hours after inoculation, and the plates were re-incubated overnight. A change in colour from blue to pink indicated the growth of bacteria. The fluorescence was read in a computer-controlled fluorometer (Cytofluor Biosearch) at an excitation wavelength of 530 nm and an emission wavelength of 590 nm. The % growth inhibition achieved by the compounds was calculated according to standard methods. The IC90 (expressed in μg/ml) was defined as the 90% inhibitory concentration for bacterial growth. The results are shown in Table 7 for an assay using a Staphylococcus aureus strain.

Data set [2] relates to Mycobacterium smegmatis (ATCC607). The data set is described as follows: In-vitro anti-bacterial activity against strain M. smegmatis ATCC607 (Alamar Blue growth inhibition). As to conditions: 90% inhibitory concentration for bacterial growth, 48 hours at 37° C.; for IC90: Mycolicibacterium smegmatis, read-out: IC90 (μg/ml) MSM 607. The class given is cell-based. As to the method: D.1. In-Vitro Method for Testing Compounds for Anti-Bacterial Activity Against Strain M. Smegmatis ATCC607.
Flat-bottom, sterile 96-well plastic microtiter plates were filled with 180 μl of sterile deionized water, supplemented with 0.25% BSA. Subsequently, stock solutions (7.8× final test concentration) of compounds were added in 45 μl volumes to a series of duplicate wells in column 2 so as to allow evaluation of their effects on bacterial growth. Serial five-fold dilutions (45 μl in 180 μl) were made directly in the microtiter plates from column 2 to 11 using a customised robot system (Zymark Corp., Hopkinton, Mass.). Pipette tips were changed after every 3 dilutions to minimize pipetting errors with high hydrophobic compounds. Untreated control samples with (column 1) and without (column 12) inoculum were included in each microtiter plate. Approximately 250 CFU per well of bacteria inoculum, in a volume of 100 in 2.8× Mueller-Hinton broth medium, was added to the rows A to H, except column 12. The same volume of broth medium without inoculum was added to column 12 in row A to H. The cultures were incubated at 37° C. for 48 hours in a humidified 5% CO2 atmosphere (incubator with open air valve and continuous ventilation). At the end of incubation, two days after inoculation, the bacterial growth was quantitated fluorometrically. Therefore Alamar Blue (10×) was added to all wells in a volume of 20 and plates were incubated for another 2 hours at […]
The fluorescence was read in a computer-controlled fluorometer (Cytofluor, Biosearch) at an excitation wavelength of 530 nm and an emission wavelength of 590 nm (gain 30). The percentage growth inhibition achieved by the compounds was calculated according to standard methods and expressed as IC90 […] which defines the 90% inhibitory concentration for bacterial growth.

As to `CS(=O)(=O)c1ccc2[nH]c(=O)c(C(c3ccccc3)C3(O)CCNCC3)cc2c1` (centres unmarked) (as salt: HCl) [Compound 100], the melting point – broadly, the temperature, or range, at which the solid turns liquid – is over 260 °C.
The compound `OC1(C(c2ccc(Cl)cc2)c2cc3cc(Br)ccc3nc2N2CCOCC2)CCN(CCc2ccccc2)CC1` (centres unmarked) [Compound 1] gave a melting point of 158 °C. Also, in data set [1], the IC90 was 6.81 µg/mL (≈ 11 µM).
`CCn1c(=O)c(C(c2ccc(Cl)cc2)C2(O)CCN(Cc3ccccc3)CC2)cc2cc(Br)ccc21` (centres unmarked) [Compound 2] yielded a melting point of 212 °C. Further, in data set [2], the IC90 is 3.57 µg/mL (≈ 6.31 µM). Also, in data set [1], the IC90 turned out to be 11.3 µg/mL (≈ 19.9 µM).
Regarding `CCn1c(=O)c(C(c2ccc(Cl)cc2)C2(O)CCN(Cc3ccccc3)CC2)cc2cc(-c3cccnc3)ccc21` (centres unmarked) [Compound 3], the melting point came out at 172 °C. Also, the IC90 in data set [2] was 3.56 µg/mL (≈ 6.31 µM). In data set [1], the IC90 came out at 7.1 µg/mL (≈ 12.6 µM).
For `COc1nc2ccc(Br)cc2cc1C(c1ccc(SC)cc1)C1(O)CCNCC1` (centres unmarked) [Compound 9], the melting point turned out to be 204 °C. Moreover, the IC90 in data set [2] is 4.78 µg/mL (≈ 10.1 µM). The IC90 in data set [1] worked out at 7.58 µg/mL (≈ 16 µM).
With `O=c1[nH]c2ccc(Br)cc2cc1C(c1ccc(Cl)cc1)C1(O)CCN(Cc2ccccc2)CC1` (centres unmarked) [Compound 10], the melting point is 244 °C. In addition, the IC90 in data set [1] is 4.27 µg/mL (≈ 7.94 µM).
The compound `C=Cc1ccc2nc(OC)c(C(c3ccc(Cl)cc3)C3(O)CCN(Cc4ccccc4)CC3)cc2c1` (centres unmarked) [Compound 11] gave a melting point of 195 °C. Also, the IC90 in data set [1] was over 39.8 µg/mL.
For `COc1nc2ccccc2cc1C(c1ccccc1)C1(O)CCNCC1` (centres unmarked) [Compound 12], the melting point was 119 °C. The IC90 in data set [1] is over 22 µg/mL.
`COc1nc2ccc(C#N)cc2cc1C(c1ccc(Cl)cc1)C1(O)CCN(Cc2ccccc2)CC1` (centres unmarked) [Compound 13] displayed a melting point of 199 °C. Moreover, in data set [1], the IC90 was 25.6 µg/mL (≈ 51.3 µM).
With `COc1nc2ccc(Br)cc2cc1C(c1ccc(Cl)cc1)C1(O)CCN(C)CC1` (centres unmarked) [Compound 16], the melting point came to 193 °C. For the same compound, the IC90 in data set [2] stood at 2.39 µg/mL (≈ 5.02 µM). In data set [1], the IC90 was determined as 5.99 µg/mL (≈ 12.6 µM).
For `COc1nc2ccc(Br)cc2cc1C(c1ccc(Cl)cc1)C1(O)CCN(Cc2cccc(F)c2)CC1` (centres unmarked) [Compound 17] the same measures were 220 °C, 14.3 µg/mL (≈ 25.1 µM) and 14.3 µg/mL (≈ 25.1 µM).
`COc1nc2ccc(CO)cc2cc1C(c1ccc(Cl)cc1)C1(O)CCN(Cc2ccccc2)CC1` (centres unmarked) [Compound 22] showed a melting point of 196 °C. Further, in data set [2], the IC90 is 16.3 µg/mL (≈ 32.4 µM). Also, the IC90 in data set [1] was over 16.3 µg/mL.
For the compound `COc1nc2ccc(C(=O)Nc3cccnc3)cc2cc1C(c1ccc(Cl)cc1)C1(O)CCN(Cc2ccccc2)CC1` (centres unmarked) [Compound 24], the melting point worked out at 146 °C. In addition, the IC90 in data set [2] worked out at 7.47 µg/mL (≈ 12.6 µM). The IC90 in data set [1] amounted to 8.38 µg/mL (≈ 14.1 µM).
Consider `COc1nc2ccc(Br)cc2cc1C(c1ccc(Cl)cc1)C1(O)CCN(C(=N)N)CC1` (centres unmarked) [Compound 25], for which the melting point was over 250 °C. Besides, in data set [2], the IC90 is 6.34 µg/mL (≈ 12.6 µM). Besides, the IC90 in data set [1] was found to be 1.59 µg/mL (≈ 3.16 µM).
Consider `O=c1[nH]c2ccc(-c3cccnc3)cc2cc1C(c1ccc(Cl)cc1)C1(O)CCNCC1` (centres unmarked) [Compound 26], for which the melting point is > 250 °C and 250 °C. In addition, in data set [2], the IC90 amounted to 3.09 µg/mL (≈ 6.93 µM). In data set [1], the IC90 is over 30.9 µg/mL.
For `COc1nc2ccc(Br)cc2cc1C(c1ccc(C#N)cc1)C1(O)CCN(Cc2ccccc2)CC1` (centres unmarked) [Compound 58], the melting point was 220 °C. The IC90 in data set [1] is 8.47 µg/mL (≈ 15.6 µM).
In turn, `O=c1[nH]c2ccc(Br)cc2cc1C(c1ccc2ccccc2c1)C1(O)CCN(Cc2ccccc2)CC1` (centres unmarked) [Compound 80] registered a melting point of 249 °C. Further, the IC90 in data set [1] stood at 4.4 µg/mL (≈ 7.95 µM).
`Cn1c(=O)c(C(c2ccc(Cl)cc2)C2(O)CCN(Cc3ccccc3)CC2)cc2cc(Br)ccc21` (centres unmarked) [Compound 96]: in data set [2], the “IC90 (μg/ml) MSM 607” value amounted to 6.19 µg/mL (≈ 11.2 µM). For the same compound, the “IC90 (μg/ml) STA B29213” value in data set [1] worked out at 13.86 µg/mL (≈ 25.1 µM).
Take `CS(=O)(=O)c1ccc2[nH]c(=O)c(C(c3ccccc3)C3(O)CCNCC3)cc2c1` (centres unmarked) [Compound 100]: the IC90 in data set [2] and in data set [1] was over 11.3 µg/mL each time.
As for `Cl.O=c1[nH]c2ccc(Br)cc2cc1C(c1cccc(Cl)c1)C1(O)CCNCC1` (centres unmarked) [Compound 101], in data set [2], the “IC90 (μg/ml) MSM 607” value was 12.04 µg/mL. In data set [1], the “IC90 (μg/ml) STA B29213” value was over 12.04 µg/mL.
As to `CCn1c(=O)c(C(c2ccc(Cl)cc2)C2(O)CCNCC2)cc2cc(Br)ccc21.O=C(O)/C=C/C(=O)O` (centres unmarked) [Compound 102], the “IC90 (μg/ml) MSM 607” value in data set [2] was 11.58 µg/mL. In data set [1], the “IC90 (μg/ml) STA B29213” value was found to be 14.58 µg/mL.
For the compound `Cl.N#Cc1ccc(C(c2cc3cc(Br)ccc3[nH]c2=O)C2(O)CCNCC2)cc1` (centres unmarked) [Compound 103], in data set [2], the “IC90 (μg/ml) MSM 607” value was over 11.93 µg/mL. Further, the “IC90 (μg/ml) STA B29213” value in data set [1] was over 11.93 µg/mL.
For `COc1nc2ccc(C(N)=O)cc2cc1C(c1ccc(Cl)cc1)C1(O)CCN(Cc2ccccc2)CC1` (centres unmarked) [Compound 107], the “IC90 (μg/ml) MSM 607” value in data set [2] was 12.96 µg/mL (≈ 25.1 µM). Besides, the “IC90 (μg/ml) STA B29213” value in data set [1] was over 12.96 µg/mL.
As for `COc1nc2ccc(C(=O)N(C)C)cc2cc1C(c1ccc(Cl)cc1)C1(O)CCN(Cc2ccccc2)CC1` (centres unmarked) [Compound 108], the “IC90 (μg/ml) MSM 607” value in data set [2] is over 13.67 µg/mL. In addition, the “IC90 (μg/ml) STA B29213” value in data set [1] is over 13.67 µg/mL.
